From PubChem BioAssay AID624278 (The Scripps Research Institute Molecular Screening Center, 2012)
Activity calls are given as the source filed them.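 How the source made its calls: active means target gene mRNA expression lowered over 20% below the solvent-only control in each of three panels; inactive means the rest.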

How the values were obtained:
Test in all cases: RORC target gene expression suppression, late-stage follow-up, mechanism study for RORC inverse agonist project, cell-based, qPCR, endogenous IL-17 and IL-23R, fluorescence (AID 624278)
[1] = system: IL-17; conditions: EL-4 murine T cells, IL-17/IL-23R qPCR, PMA/ionomycin, at 5 µM, stronger effect = lower value
[2] = system: IL-23R; conditions: EL-4 murine T cells, IL-17/IL-23R qPCR, PMA/ionomycin, at 5 µM, stronger effect = lower value
[3] = molecular target: Interleukin-17A (Mus musculus) (UniProt Q62386); conditions: EL-4 murine T cells, IL-17/IL-23R qPCR, PMA/ionomycin; IL-17; Protein
Chain of Interleukin-17A (Mus musculus) (Q62386 whole entry, looked up): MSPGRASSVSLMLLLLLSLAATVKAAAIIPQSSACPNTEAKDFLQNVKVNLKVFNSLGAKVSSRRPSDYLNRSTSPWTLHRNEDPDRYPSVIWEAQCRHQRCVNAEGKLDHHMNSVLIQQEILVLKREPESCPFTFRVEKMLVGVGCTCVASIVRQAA

- outcome [3]: active
SMILES: OC(c1ccc(-c2ccc(CN3CCN(Cc4ccncc4)CC3)cc2)c(F)c1)(C(F)(F)F)C(F)(F)F
- relative protein level ([1]; IL-17 protein level): 0.6
- relative gene expression ([1]; mRNA): 0.1
- relative gene expression [2]: 0.2
